SMILES strings stand for the structures.

For this test, the system named is benzodiazepine receptors. The experiment in a line: in vivo displacement of 3H-flunitrazepam from brain benzodiazepine receptors in mice. As to conditions: female NMR mice, i.p.; 3H-FNM i.v. 15 min after test substance; forebrain 20 min later; dose inhibiting 50% of specific 3H-FNM binding. The text has this:
The pharmaceutical properties of the compounds of the invention can be illustrated by determining their capability for displacing radioactive labelled flunitrazepam from benzodiazepine receptors.
The displacement activity of the compounds of the invention may be found by determining the ED50 value. The ED50 value represents the dose (mg/kg) of a test substance which causes the specific binding of flunitrazepam to benzodiazepine receptors in a living brain to be reduced to 50% of the control value.
Such an in vivo test is carried out as follows:
Principle. Twenty minutes after a dose of ^3 H-flunitrazepam (^3 H-FNM) (200 μCi/kg, i.v.) the amount of specific ^3 H-FNM binding to brain benzodiazepine receptors has reached its maximal value.
Test procedure. Suspensions of test substances (2 mg/ml) are prepared in 5% Duphasol-X (TM Duphar, castor oil-ethylene oxide derivative for emulsifying and solubilizing oil and other water-insoluble substances) by sonification for 10 min using a Branson B15 microtip ultrasonifier (setting 7). Groups of three mice (female, NMR, 18-22 grams) are injected with the test substance at 100 mg/kg intraperitoneally. Fifteen minutes after test substance administration the mice are challenged with 4 μCi intravenously of ^3 H-FNM (70-90) Ci/mole) in 200 μl physiological saline. Twenty minutes after ^3 H-FNM administration mice are sacrificed by decapitation, the forebrains rapidly excised (within 30 sec) and homogenized in 12 ml of icecold 25 mM KH2 PO4, pH 7.1, using an Ultra-Turrax homogenizer fitted with an N 10 shaft. […] The amounts of radioactivity on the filters are determined by conventional scintillation counting. […]
Results. The ED50 value is determined from dose response curves. If only one dose of test substance is administered the ED50 value is calculated as follows, provided that the inhibition of specific binding is within the range of 25-75%: [formula] where Co is specific binding in controls and Cx is specific binding in mice treated with test substance.
On the technique in general: Loss of bound radioactivity is the signal in a displacement assay; it reports binding, not function.
In the case of `CC(C)n1c(=O)c2c(-c3cc(C4CC4)on3)ncn2c2ccccc21` [Compound 8, 3-(5-cyclopropyl-3-isoxazolyl)-4,5-dihydro-5-isopropyl-4-oxo-imidazo[1,5-a]quinoxaline], the ED50 is reported as 1,8 mg/kg.

As for `COc1cccc(Cn2c(=O)c3c(-c4cc(C)no4)ncn3c3ccccc32)c1` [Compound 27, 4,5-dihydro-5-(3-methoxybenzyl)-3-(3-methyl-5-isoxazolyl)-4-oxo-imidazo[1,5-a]quinoxaline], the ED50 is on record as 0,45 mg/kg.

`CC(C)=CCn1c(=O)c2c(-c3cc(C)no3)ncn2c2ccccc21` [Compound 29, 4,5-dihydro-5-(3,3-dimethylallyl)-3-(3-methyl-5-isoxazolyl)-4-oxo-imidazo[1,5-a]quinoxaline]: the ED50 was 0,37 mg/kg.

Source of the values: patent US5116841A, “Imidazoquinoxalines and their preparation and use” (Novo Nordisk A/S, priority 1989, dated 1992).
